Entries after “also recorded” stand apart in the source; their conditions may differ.
Tests used:
Format in all cases: cell-based, human
endothelia (HUVEC) = experiment: ELISA quantitation of PlGF secretion by endothelial cells
Text: (§1) FIG. 4: CPX and S1P induce secretion of different angiogenic proteins by endothelial cells and fibroblasts. […] (E) and (J): representative images of 3 proteomic profiler membranes showing differences in protein secretion between CPX and S1P treated group and non-treated group (culture media control). (K) and (L): ELISA quantitation of PlGF and VEGF corroborating semi-quantitative results shown in A-I. The negative values in the plots denote the cellular uptake of the measured proteins as opposed to secrete them. * p<0.05 In fibroblasts, CPX+S1P expression of HGF (1.4 fold), IGFBP-2 (1.8 fold), uPA (1.6 fold) and VEGF (11 fold). […] In fibroblasts an increase of VEGF secretion which was 1819±754.1 (±standard error) pg/ml-Million cell-day was confirmed.

fibroblasts (IMR-90) = experiment: ELISA quantitation of VEGF secretion by fibroblasts
Text: as §1

IMR-90 fibroblasts = experiment: Proteome profiler of angiogenic proteins secreted by fibroblasts; conditions: single agent compared with CPX+S1P
Text: as §1, with “p<0.05 As the experimental set-up favoured soluble factors as messengers between the two cell types the secretion of angiogenic factors by fibroblasts and endothelial cells in the presence of CPX and S1P, respectively, was assessed.” for “p<0.05”

IMR90 cells = experiment: ELISA of MCP-1 secreted by IMR90 cultured in EC conditioned medium
Description: FIG. 5: Endothelial CM modulates growth factor secretion by fibroblasts. (A) ELISA: fibroblasts secrete 5 times more MCP-1 cultured in EC CM. […] (B) and (C): semi-quantitative proteomic array plots showing clearance of EC secreted endothelin-1 and EGF from culture media in the presence of fibroblasts. […] To study the influence of endothelial cells on fibroblasts IMR90 cells were cultured in EC conditioned medium with or without the addition of CPX+S1P, and quantified factors secreted by fibroblasts by ELISA. […] Endothelial cell CM induced the secretion of MCP-1 by fibroblasts by 3-fold in the absence of any CPX+S1P induction, however, the combination of both pharmacological agents increased MCP-1 secretion by a further 20%.

HUVEC = experiment: Proteome profiler of angiogenic proteins secreted by endothelial cells; conditions: single agent compared with CPX+S1P
Text: FIG. 4: CPX and S1P induce secretion of different angiogenic proteins by endothelial cells and fibroblasts. […] (E) and (J): representative images of 3 proteomic profiler membranes showing differences in protein secretion between CPX and S1P treated group and non-treated group (culture media control). (K) and (L): ELISA quantitation of PlGF and VEGF corroborating semi-quantitative results shown in A-I. The negative values in the plots denote the cellular uptake of the measured proteins as opposed to secrete them. * p<0.05 As the experimental set-up favoured soluble factors as messengers between the two cell types the secretion of angiogenic factors by fibroblasts and endothelial cells in the presence of CPX and S1P, respectively, was assessed. Proteome profiler data indicated the increased secretion of several proteins including PlGF (6 fold), IL-8 (3 fold), EGF (2.9 fold) and endothelin-1 (1.5 fold) by CPX+S1P by endothelial cells.

SMILES	effect on PlGF secretion rate (endothelia (HUVEC))	effect on VEGF secretion (fibroblasts (IMR-90))	increased secretion of HGF, IGFBP-2, uPA and VEGF by fibroblasts, single agent (IMR-90 fibroblasts)	effect on MCP-1 secretion by fibroblasts, monosubstance (IMR90 cells)	increased secretion of PlGF, IL-8, EGF and endothelin-1 by endothelial cells, single agent (HUVEC)
CCCCCCCCCCCCC/C=C/[C@@H](O)[C@@H](N)COP(=O)(O)O [S1P, sphingosine 1-phosphate]	did not show any effect	did not elicit measurable effects	none were observed	neither S1P nor CPX were able to increase basal MCP-1 secretion; also recorded: No significant difference	none were observed
Cc1cc(C2CCCCC2)n(O)c(=O)c1 [CPX, ciclopirox olamine]			Highly comparable increases; also recorded: main compound causing the observed upregulation	neither S1P nor CPX were able to increase basal MCP-1 secretion; also recorded: No significant difference	Highly comparable increases; also recorded: main compound causing the observed upregulation

From patent US9446031B2, “Compositions and methods for neovascularization” (National University of Singapore, priority 2012, dated 2016)
